# US9371330B2, “Substituted pyrazino[1,2-a]pyrimidines useful as CBP/catenin antagonists for enhancing asymmetric division of somatic stem cells” (University of Southern California, priority 2011, dated 2016)
# Read-outs that look alike come from different tables or passages of the source.
# Assays:
# Min mouse = Min mouse polyps; details: in vivo
# From the text: Cancer. The importance of Wnt signaling in colorectal cancer is undisputed. Applicant's investigation on the therapeutic utility of ICG-001 therefore quite naturally began with colon cancer.
# [1] = topical treatment of pregnant mice throughout pregnancy, offspring outcome; assay type: in vivo, mouse; details: mothers treated topically 0.5M
# From the text: Acute Promyelocytic Leukemia (APL) is unique among myeloid leukemias due to its sensitivity to all-trans retinoic acid (ATRA), a derivative of vitamin A. Treatment with ATRA dissociates the NCOR-HDACL complex from RAR and allows DNA transcription and differentiation of the immature leukemic promyelocytes into mature granulocytes by targeting the oncogenic transcription factor and its aberrant action. […] A large number of scientific studies have also investigated a possible role for vitamin D in cancer prevention, including colon, prostate, breast, pancreatic and skin cancer. […] However, there are also reports of synergistic effects on the activation of gene expression by ATRA and Wnt for example (47). […] This is the same region of these coactivator proteins (i.e., CBP and p300) that partners with catenin (both beta and gamma) and the CBP/catenin antagonists (e.g., ICG-001) also bind to this region. These nuclear receptor ligands have many of the same differentiating effects on stem cell populations that applicant has observed with specific CBP/catenin antagonists. Although, both Vitamin A and D are required during development and have many beneficial health effects in adulthood, both are teratogenic at high levels. […]
# [2] = tested on: bleomycin-induced pulmonary fibrosis; assay: bleomycin-induced lung injury / pulmonary fibrosis; assay type: in vivo, mouse
# [3] = tested on: drug resistant leukemia stem cells; assay: NOD/SCID/IL2rγ-/- mouse model of engrafted human CML; assay type: in vivo
# From the text: Chronic myelogenous leukemia (CML). Despite the stunning clinical success achieved to date in chronic phase CML patients treated with the BCR-ABL antagonist Gleevec/Imatinib (IM), responses in advanced phase patients are often short-lived, and patients invariably undergo disease progression. Furthermore, resistance to IM develops in 2% to 4% of patients annually and IM dose escalation is generally not sufficient to control the disease. Several mechanisms that contribute to tyrosine kinase inhibitor (TKI) resistance have been proposed including the insensitivity of quiescent CML stem cells to TKIs due to low expression of BCR-ABL and the emergence of drug resistant leukemic clones associated with increased nuclear catenin levels, a hallmark of increased Wnt/catenin transcription. […] Epigenetic silencing of negative regulators of the Wnt signaling cascade is also frequently associated with leukemias, including CML. […] The mice treated with one course (28 days from day 13-41 after leukemia engraftment) of CBP/catenin antagonist plus bcr-abl antagonist are essentially cured of leukemia and live as long (approximately 2 years) as their littermates that were never engrafted with leukemia.
# CBP = CBP (Homo sapiens, UniProt Q92793); assay: binding to coactivator CBP (affinity chromatography; binding and isothermal calorimetry)
# From the text: (§1) ICG-001. Applicant's pharmacologic tools were identified using cell-based forward chemical genomic screens of small molecule secondary structure template chemical libraries (22).
# (§2) Applicant next mapped the binding domains between CBP and beta-catenin, as well as between p300 and beta-catenin. The C-terminal trans-activating region of beta-catenin (647-781) interacted with the same 1-111 amino acids of both CBP and p300 (23). However, only the interaction between CBP and beta-catenin was disrupted by ICG-001, and not the p300/beta-catenin interaction.
# [4] = biological target: p300/beta-catenin interaction (Homo sapiens, UniProt Q09472); assay: disruption of p300/beta-catenin interaction; assay type: binding
# From the text: as §2
# MDA-MB-231 cells = assay: MDA-MB-231 stem/tumor initiating cell markers; assay type: cell-based
# From the text: This phenotype CD44^hi, CD24^lo has been associated with a subpopulation of cells that behave like a breast cancer stem/tumor initiating cell population (51). […] Beyond reduction of survivin message level, there is a gene expression profile consistent with the occurrence of a mesenchymal to epithelial (MET) transition (i.e. decreased expression of twist, vimentin and S100A4 and an increase in E-cadherin expression). Recently, there have been a number of papers, which have correlated epithelial to mesenchymal transition (EMT) with a CSC phenotype (52). EMT is a normal physiologic process that is important in development and in adults, for example in wound healing, but pathophysiologically is associated with tumor metastasis and organ fibrosis (see later discussion on fibrosis). Specific CBP/catenin antagonists can reverse this aberrant EMT in vivo (EMT also plays a critical role in the skin in hair loss etc. J Dermatol Sci. 2011 January; 61(1):7-13. Epub 2010 Dec. 5; epithelial-mesenchymal transition (EMT) plays important roles not only in the morphogenesis but also in wound repair, tissue fibrosis and cancer progression. Recently, regulatory mechanism of this process has been elaborately elucidated. EMT can be a new therapeutic target for treating skin ulcer, fibrosing alopecia, and malignant cutaneous cancers, including squamous cell carcinoma and melanoma).
# [5] = tested on: Wnt/catenin transcription in SW480 colon carcinoma cells; assay: TOPFLASH TCF/catenin luciferase reporter; assay type: cell-based; details: Homo sapiens
# From the text: as §1
# [6] = tested on: rat type II lung epithelial cells; assay: TGF-β1-induced EMT genes in rat type II lung epithelial cells; assay type: cell-based
# From the text: Fibrosis. Idiopathic pulmonary fibrosis (IPF)/usual interstitial pneumonia (UIP), the most common of the idiopathic interstitial pneumonias, is a devastating, progressive disorder characterized by excessive fibroblast proliferation and extracellular matrix remodeling leading to lung destruction. There is currently no effective therapy for this uniformly fatal disease. An emerging paradigm proposes a central role for alveolar epithelial cell injury and dysregulated repair in the pathogenesis of IPF. Injury to the epithelium is thought to initiate a cascade of fibroblast activation and matrix deposition, which in predisposed hosts fails to resolve as it would in the course of normal wound repair. Epithelial cells undergo excessive apoptosis, whereas fibroblasts are less amenable to apoptosis and manifest increased survival. The well-characterized model of bleomycin-induced lung injury has been extensively used to investigate potential pathways involved in the pathogenesis of pulmonary fibrosis and to explore therapeutic approaches.
# Sequence of CBP (Q92793 whole entry): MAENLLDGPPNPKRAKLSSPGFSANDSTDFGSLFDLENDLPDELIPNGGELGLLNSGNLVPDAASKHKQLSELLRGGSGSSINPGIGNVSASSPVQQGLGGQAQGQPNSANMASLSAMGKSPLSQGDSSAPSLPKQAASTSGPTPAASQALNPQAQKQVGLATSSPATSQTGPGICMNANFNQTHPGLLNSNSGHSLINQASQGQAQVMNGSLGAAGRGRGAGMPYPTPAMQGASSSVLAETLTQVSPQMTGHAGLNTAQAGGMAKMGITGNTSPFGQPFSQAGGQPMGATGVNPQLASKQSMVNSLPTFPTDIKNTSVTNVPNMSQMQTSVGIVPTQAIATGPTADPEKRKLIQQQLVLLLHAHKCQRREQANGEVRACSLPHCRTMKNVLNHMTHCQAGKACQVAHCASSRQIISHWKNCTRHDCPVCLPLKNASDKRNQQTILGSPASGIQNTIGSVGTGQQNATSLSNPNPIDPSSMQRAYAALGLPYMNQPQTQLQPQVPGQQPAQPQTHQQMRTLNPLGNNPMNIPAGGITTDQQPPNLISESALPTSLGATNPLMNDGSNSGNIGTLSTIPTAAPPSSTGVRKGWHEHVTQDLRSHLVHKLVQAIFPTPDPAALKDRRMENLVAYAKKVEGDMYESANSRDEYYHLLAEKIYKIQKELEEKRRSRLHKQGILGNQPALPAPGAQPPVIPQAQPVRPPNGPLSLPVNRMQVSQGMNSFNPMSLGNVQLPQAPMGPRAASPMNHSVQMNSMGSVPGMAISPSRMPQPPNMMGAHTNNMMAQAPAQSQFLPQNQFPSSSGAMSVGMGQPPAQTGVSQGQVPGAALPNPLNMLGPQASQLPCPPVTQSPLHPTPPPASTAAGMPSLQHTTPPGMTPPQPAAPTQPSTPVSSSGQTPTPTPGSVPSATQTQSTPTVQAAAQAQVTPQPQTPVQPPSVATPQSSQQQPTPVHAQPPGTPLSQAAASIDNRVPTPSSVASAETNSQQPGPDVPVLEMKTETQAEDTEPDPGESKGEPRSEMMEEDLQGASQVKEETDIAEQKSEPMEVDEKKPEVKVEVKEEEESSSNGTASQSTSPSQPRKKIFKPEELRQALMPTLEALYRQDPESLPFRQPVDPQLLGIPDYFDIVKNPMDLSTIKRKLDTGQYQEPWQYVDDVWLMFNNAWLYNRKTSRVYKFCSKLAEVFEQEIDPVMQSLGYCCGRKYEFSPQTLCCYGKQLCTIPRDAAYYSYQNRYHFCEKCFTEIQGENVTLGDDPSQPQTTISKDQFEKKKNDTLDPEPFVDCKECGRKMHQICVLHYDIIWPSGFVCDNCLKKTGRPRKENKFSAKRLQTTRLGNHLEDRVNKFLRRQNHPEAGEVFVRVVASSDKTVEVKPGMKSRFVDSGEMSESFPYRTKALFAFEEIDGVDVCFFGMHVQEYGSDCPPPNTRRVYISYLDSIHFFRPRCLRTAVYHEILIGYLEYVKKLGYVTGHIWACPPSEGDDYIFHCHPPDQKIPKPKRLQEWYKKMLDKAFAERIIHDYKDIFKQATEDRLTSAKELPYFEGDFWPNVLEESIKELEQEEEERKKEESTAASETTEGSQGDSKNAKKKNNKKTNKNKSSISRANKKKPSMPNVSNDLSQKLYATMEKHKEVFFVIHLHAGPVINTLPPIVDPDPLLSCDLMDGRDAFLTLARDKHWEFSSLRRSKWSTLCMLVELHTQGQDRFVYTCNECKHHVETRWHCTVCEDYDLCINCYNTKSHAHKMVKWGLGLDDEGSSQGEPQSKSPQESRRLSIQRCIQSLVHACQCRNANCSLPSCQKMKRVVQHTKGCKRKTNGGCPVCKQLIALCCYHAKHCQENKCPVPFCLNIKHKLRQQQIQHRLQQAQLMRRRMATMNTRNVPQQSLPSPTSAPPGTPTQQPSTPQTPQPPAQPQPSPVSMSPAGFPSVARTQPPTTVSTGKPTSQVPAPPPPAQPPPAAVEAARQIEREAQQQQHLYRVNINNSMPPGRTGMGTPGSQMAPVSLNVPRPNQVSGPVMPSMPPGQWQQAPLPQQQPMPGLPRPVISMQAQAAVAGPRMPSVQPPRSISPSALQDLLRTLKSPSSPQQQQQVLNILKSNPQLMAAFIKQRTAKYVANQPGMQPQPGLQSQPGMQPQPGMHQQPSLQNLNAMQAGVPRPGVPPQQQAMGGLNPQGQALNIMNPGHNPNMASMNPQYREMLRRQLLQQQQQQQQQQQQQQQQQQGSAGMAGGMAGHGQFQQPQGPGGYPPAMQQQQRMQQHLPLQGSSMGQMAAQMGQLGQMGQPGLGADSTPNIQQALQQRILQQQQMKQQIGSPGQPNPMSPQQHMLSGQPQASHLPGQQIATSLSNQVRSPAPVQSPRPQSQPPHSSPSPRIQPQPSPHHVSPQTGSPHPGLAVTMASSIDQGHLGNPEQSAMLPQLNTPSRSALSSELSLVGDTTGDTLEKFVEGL
# Sequence of p300/beta-catenin interaction (Q09472 1-111): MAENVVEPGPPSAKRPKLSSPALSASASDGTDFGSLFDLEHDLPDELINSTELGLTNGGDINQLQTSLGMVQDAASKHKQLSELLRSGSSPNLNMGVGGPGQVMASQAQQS
smiles,measurement,setting,value
O=C1[C@H](Cc2ccc(O)cc2)N2C(=O)CCN(C(=O)NCc3ccccc3)[C@H]2CN1Cc1cccc2ccccc12 [ICG-001],polyps,Min mouse,reducing polyps
same,weight and size of offspring at 6 weeks of age,[1]; ~E0.5 to ~E20,normal weight and size
same,effects on germ cell populations of offspring,[1]; second generation bred,no deleterious effects on germ cell populations
same,bleomycin-induced lacZ expression in airway and alveolar epithelium,[2]; BAT-gal transgenic mice,significantly reduced
same,expression of S100A4/FSP-1,[2]; bleomycin model in vivo in the mouse and fibroblasts from IPF patients in vitro,significantly decreased the expression of S100A4/FSP-1
same,established fibrosis,"[2]; mouse, in vivo",could reverse established fibrosis
same,severity of pulmonary fibrosis,[2]; pretreatment,significantly reduced the severity of pulmonary fibrosis
same,effect on normal endogenous hematopoiesis,"[3]; mouse, in vivo",without deleterious effects to normal endogenous hematopoiesis
same,elimination of drug resistant leukemia stem cells,[3]; with bcr-abl antagonist,drug resistant leukemia stem cells can be eliminated
same,Kd,"CBP; affinity chromatography approach, read-out: binding affinity to the coactivator CBP",~1 nM
same,Kd,"CBP; binding and isothermal calorimetry studies, read-out: binding affinity to the N-terminus of CBP",~1 nM
same,effect on the p300/beta-catenin interaction,[4],without affecting the p300/beta-catenin interaction
same,CD44 expression,MDA-MB-231 cells,decreasing CD44 expression
same,side population (SP) and ALDH activity,MDA-MB-231 cells,dramatically decreases the side population (SP) and ALDH activity
same,cell surface CD24 expression,MDA-MB-231 cells; 24 h,significantly increased the expression of cell surface CD24
same,IC50,[5],3000 nM
same,TGF-β1-induced up-regulation of α-SMA and type I collagen,[6],prevents the TGF-β1-induced up-regulation of α-SMA and type I collagen
